Paper PMC12491383, “Organ and tumour dosimetry of ^177Lu-rhPSMA-10.1, a novel PSMA-targeted therapy: results from a Phase I trial” (European Journal of Nuclear Medicine and Molecular Imaging, 2025)
Several values for one entry are separate records, joined by “and”; a condition that tells them apart may be missing. Identical values can stand only once.

Test: SPECT/CT image-based normal organ dosimetry (MIRD S-value methodology), Phase I BET-PSMA-121
Type: in vivo, human
Conditions: for Cumulative image-based absorbed dose, bone marrow, range across patients / Cumulative image-based absorbed dose, salivary glands, range across patients: all cycles; for Cumulative Absorbed Dose, Bone Marrow, % of dose limit: limit 2 Gy; for Cumulative Absorbed Dose, Kidney, % of dose limit: limit 23 Gy; for Cumulative Absorbed Dose, Salivary Glands, % of dose limit: limit 24 Gy
Text: Figure 1 provides a schematic representation of the study. Enrolled patients were sequentially entered into one of the two cohorts. Cohort A received 5.55 GBq (150 mCi) of ^177Lu-rhPSMA-10.1 and Cohort B received 7.40 GBq (200 mCi) of ^177Lu-rhPSMA-10.1. Subsequent doses were delivered at 6-week intervals subject to individual tolerability and safety assessments. Each patient received between one and three cycles, with a maximum of three cycles of treatment being permitted in this initial part of the study. All administrations of ^177Lu-rhPSMA-10.1 were performed using intravenous injection under the supervision of the treating physician.
Multi-bed single-photon emission computed tomography (SPECT)/CT was conducted at 3-, 24-, 48- and 168-hours post-^177Lu-rhPSMA-10.1 administration in each treatment cycle for the estimation of organ and tumour absorbed doses in each patient. Prior to commencement of the study, each investigating site was required to complete a calibration of their dose calibrator and SPECT/CT system to ensure harmonised quantification of the imaging data. Quantitative reconstructions and all dosimetry analyses were carried out centrally by an independent dosimetry vendor (Radiopharmaceutical Imaging and Dosimetry LLC, Baltimore, MD).
The specific absorbed doses (Gy/GBq) in normal organs and tumours were determined using the Medical Internal Radiation Dose (MIRD) Committee S-value methodology. Individual patient organ masses, determined via CT delineation, were scaled to reflect deviations from reference phantom geometry. Cumulative organ absorbed doses (Gy) were calculated across all treatment cycles. Further details on dosimetry methodology are provided in the supplemental materials and have been reported in accordance with EANM guidance.
All patients underwent multi-bed single-photon emission computed tomography (SPECT)/CT at 3-, 24-, 48- and 168-hours post-^177Lu-rhPSMA-10.1 administration during each treatment cycle. The acquisition parameters are shown in Supplemental Table S1. All images were centrally reconstructed in 3D-RD-S using the iterative Ordered Subsets Expectation-Maximization (OSEM) algorithm with 40 iterations and 5 subsets. Attenuation, scatter, and the Collimator-Detector Response Function (CDRF) were modelled during the iterative process using a rotation-based projector. CT-based attenuation compensation was performed using the attenuation map generated from the CT image. Scatter was modelled using the Effective Source Scatter Estimation (ESSE) method.
Reconstructed images were converted to activity concentration units (Becquerel (Bq)/millilitre (mL)) using the calibration factor generated for each individual imaging system. Organ masses were individually determined using CT-based delineations and longitudinal SPECT activity statistics were based on these same delineations.
Time integrated activity coefficients (TIACs) were calculated for each target tissue. This was done by fitting each time–activity curve with an exponential function (mono, bi, or exponential uptake and washout) and integrating from time 0 to infinity. The simpler function was preferred provided the fit was adequate ([…]).
The TIAC in the bone marrow was derived from contours drawn around the marrow inside lumbar vertebrae L3–L5. Where lesions were present in the lumbar area, contours were drawn around either the femur heads, scapula or sternum depending on the anatomical coverage. The TIAC was then divided by the marrow mass in this region to give the TIAC concentration. The total bone marrow TIAC was be obtained as the product of this concentration and the standard International Commission on Radiological Protection (ICRP) bone marrow mass.
The S-value methodology was used to estimate the target tissue dose. […]

[1] = Cohort A (5.55 GBq/cycle), 3 patients
[2] = Cohort B (7.40 GBq/cycle), 10 patients
[3] = Patient 1, Cohort A, 3 cycles, 16.20 GBq cumulative
[4] = Patient 2, Cohort A, 2 cycles, 11.57 GBq cumulative
[5] = Patient 3, Cohort A, 3 cycles, 16.58 GBq cumulative
[6] = Patient 4, Cohort B, 3 cycles, 22.94 GBq cumulative

In the case of `CC(C)(C)[Si](F)(c1ccc(C(=O)NC[C@@H](NC(=O)CN2CCN(CC(=O)[O-])CCN(CC(=O)[O-])CCN(CC(=O)[O-])CC2)C(=O)N[C@H](CCCCNC(=O)CCC(=O)NCCC[C@@H](NC(=O)CC[C@H](NC(=O)N[C@@H](CCC(=O)O)C(=O)O)C(=O)O)C(=O)O)C(=O)O)cc1)C(C)(C)C.[177Lu+3]` [^177Lu-rhPSMA-10.1], the “Mean (SD) Absorbed Dose, adrenals” value (All Cycles) is reported as 0.010 (0.018) Gy/GBq, the “Mean (SD) Absorbed Dose, bladder wall” value (All Cycles) is reported as 0.018 (0.010) Gy/GBq and the “Mean (SD) Absorbed Dose, bone marrow (image-based)” value (All Cycles) is reported as 0.011 Gy/GBq and 0.011 (0.020) Gy/GBq. For the same compound, the “Mean (SD) Absorbed Dose, brain” value (All Cycles) was 0.003 (0.004) Gy/GBq, the “Mean (SD) Absorbed Dose, gall bladder wall” value (All Cycles) was 0.004 (0.002) Gy/GBq and the “Mean (SD) Absorbed Dose, heart” value (All Cycles) was 0.014 (0.003) Gy/GBq. The “Mean (SD) Absorbed Dose, intestine” value (All Cycles) was 0.002 (0.001) Gy/GBq, the “Mean (SD) Absorbed Dose, kidneys” value (All Cycles) was 0.297 (0.098) Gy/GBq and the “Mean (SD) Absorbed Dose, lacrimal glands” value (All Cycles) was 0.611 (0.329) Gy/GBq. The “Mean (SD) Absorbed Dose, liver” value (All Cycles) was 0.035 (0.018) Gy/GBq, the “Mean (SD) Absorbed Dose, lungs” value (All Cycles) was 0.049 (0.055) Gy/GBq and the “Mean (SD) Absorbed Dose, pancreas” value (All Cycles) was 0.002 (0.001) Gy/GBq. For the same compound, the “Mean (SD) Absorbed Dose, prostate” value (All Cycles) was 0.003 (0.002) Gy/GBq, the “Mean (SD) Absorbed Dose, salivary glands” value (All Cycles) was 0.134 (0.077) Gy/GBq and the “Mean (SD) Absorbed Dose, spleen” value (All Cycles) was 0.034 (0.019) Gy/GBq. The “Mean (SD) Absorbed Dose, stomach wall” value (All Cycles) was 0.004 (0.003) Gy/GBq, the “Mean (SD) Absorbed Dose, ureters” value (All Cycles) was 0.002 (0.001) Gy/GBq and the “Cumulative image-based absorbed dose, bone marrow, range across patients” value [1] was 0.14–0.87 Gy. The “Cumulative image-based absorbed dose, salivary glands, range across patients” value [1] was 1.25–5.53 Gy, the “Cumulative image-based absorbed dose, bone marrow, range across patients” value [2] was 0.03–0.42 Gy and the “Cumulative image-based absorbed dose, salivary glands, range across patients” value [2] was 0.79–3.40 Gy. The “Mean (SD) Absorbed Dose, adrenals” value (Cycle 1, 13 patients) was 0.007 (0.002) Gy/GBq, the “Mean (SD) Absorbed Dose, bladder wall” value (Cycle 1, 13 patients) was 0.018 (0.013) Gy/GBq and the “Mean (SD) Absorbed Dose, bone marrow (image-based)” value (Cycle 1, 13 patients) was 0.011 (0.010) Gy/GBq. For the same compound, the “Mean (SD) Absorbed Dose, brain” value (Cycle 1, 13 patients) was 0.002 (0.001) Gy/GBq, the “Mean (SD) Absorbed Dose, gall bladder wall” value (Cycle 1, 13 patients) was 0.004 (0.002) Gy/GBq and the “Mean (SD) Absorbed Dose, heart” value (Cycle 1, 13 patients) was 0.013 (0.004) Gy/GBq. For the same compound, the “Mean (SD) Absorbed Dose, intestine” value (Cycle 1, 13 patients) was 0.002 (0.001) Gy/GBq, the “Mean (SD) Absorbed Dose, kidneys” value (Cycle 1, 13 patients) was 0.266 Gy/GBq and 0.27 Gy/GBq and 0.266 (0.075) Gy/GBq and the “Mean (SD) Absorbed Dose, lacrimal glands” value (Cycle 1, 13 patients) was 0.568 (0.348) Gy/GBq. The “Mean (SD) Absorbed Dose, liver” value (Cycle 1, 13 patients) was 0.034 (0.021) Gy/GBq, the “Mean (SD) Absorbed Dose, lungs” value (Cycle 1, 13 patients) was 0.058 (0.072) Gy/GBq and the “Mean (SD) Absorbed Dose, pancreas” value (Cycle 1, 13 patients) was 0.002 (0.001) Gy/GBq. The “Mean (SD) Absorbed Dose, prostate” value (Cycle 1, 13 patients) was 0.003 (0.002) Gy/GBq, the “Mean (SD) Absorbed Dose, salivary glands” value (Cycle 1, 13 patients) was 0.130 Gy/GBq and 0.13 Gy/GBq and 0.130 (0.068) Gy/GBq and the “Mean (SD) Absorbed Dose, spleen” value (Cycle 1, 13 patients) was 0.034 (0.023) Gy/GBq. For the same compound, the “Mean (SD) Absorbed Dose, stomach wall” value (Cycle 1, 13 patients) was 0.005 (0.005) Gy/GBq, the “Mean (SD) Absorbed Dose, ureters” value (Cycle 1, 13 patients) was 0.002 (0.001) Gy/GBq and the “Cumulative Absorbed Dose, Bone Marrow” value [3] was 0.14 Gy. The “Cumulative Absorbed Dose, Kidney” value [3] was 8.20 Gy, the “Cumulative Absorbed Dose, Salivary Glands” value [3] was 5.53 Gy and the “Cumulative Absorbed Dose, Bone Marrow, % of dose limit” value [3] was 7.0%. For the same compound, the “Cumulative Absorbed Dose, Kidney, % of dose limit” value [3] was 36%, the “Cumulative Absorbed Dose, Salivary Glands, % of dose limit” value [3] was 23% and the “Cumulative Absorbed Dose, Bone Marrow” value [4] was 0.14 Gy. The “Cumulative Absorbed Dose, Kidney” value [4] was 5.86 Gy, the “Cumulative Absorbed Dose, Salivary Glands” value [4] was 1.25 Gy and the “Cumulative Absorbed Dose, Bone Marrow, % of dose limit” value [4] was 7.0%. The “Cumulative Absorbed Dose, Kidney, % of dose limit” value [4] was 25%, the “Cumulative Absorbed Dose, Salivary Glands, % of dose limit” value [4] was 5.2% and the “Cumulative Absorbed Dose, Bone Marrow” value [5] was 0.87 Gy. For the same compound, the “Cumulative Absorbed Dose, Kidney” value [5] was 6.15 Gy, the “Cumulative Absorbed Dose, Salivary Glands” value [5] was 2.96 Gy and the “Cumulative Absorbed Dose, Bone Marrow, % of dose limit” value [5] was 44%. For the same compound, the “Cumulative Absorbed Dose, Kidney, % of dose limit” value [5] was 27%, the “Cumulative Absorbed Dose, Salivary Glands, % of dose limit” value [5] was 12% and the “Cumulative Absorbed Dose, Bone Marrow” value [6] was 0.13 Gy. For the same compound, the “Cumulative Absorbed Dose, Kidney” value [6] was 8.33 Gy and the “Cumulative Absorbed Dose, Salivary Glands” value [6] was 2.87 Gy.
